# Test results taken from patent publication US20240299345A1, “GINKGOLIDE B AND ITS DERIVATIVES FOR INHIBITING AND/OR REVERSING AGING” (CHINA MEDICAL UNIVERSITY, priority 2023, published 2024).
# Key:
# GA muscle nuclei = test: Single-nucleus RNA sequencing of GA muscle; format: in vivo, mouse
# Protocol: Single-nucleus isolation was performed as previously described 41. GA muscles were isolated from mice immediately following euthanasia. The muscles were minced and homogenized with homogenization buffer, 0.25M sucrose and 1% BSA diluted in Mg^2+-free, Ca^2+-free, RNase-free PBS (#AM9624, Invitrogen, Grand Island, NY, USA). The homogenates were incubated with 2.5% Triton-X100/RNase-free PBS at a 1:6 ratio for five minutes. After being filtered through a 100-um strainer, samples were centrifuged at 3000×g for 10 min at 4° C., resuspended in 2% BSA/RNase-free PBS, and then filtered through a 40-μm strainer again. Nuclei were labeled by DAPI with 0.2 U/μL RNase inhibitor (#N8080119, Thermo Fisher Scientific). Labeled nuclei were sorted by FACS Aria II Cell Sorter with 70 μm nozzle (BD Biosciences, San Jose, CA, USA) into 2% BSA/RNase-free PBS with RNase inhibitor. Isolated nuclei were observed by confocal fluorescent microscope (Leica TCS SP8, Wetzlar, Germany) to confirm integrity. To adjust the optimal concentration of nuclei for the 10X Chromium system, isolated nuclei were counted and diluted or concentrated by centrifugation at 250×g for 5 min at 4° C. Single-nucleus RNA-sequencing libraries were constructed by the Chromium Single Cell 3′ reagent kit v2 (10X Genomics, Pleasanton, CA, USA) per the manufacturer's protocol. Following the library preparation, the libraries were sequenced on the NovaSeq 6000 System (Illumina, San Diego, CA, USA) and the 10x Genomics cellranger count pipeline produced 6072 single-nucleus transcriptomes (2128, 2015 and 1929 transcriptomes for Young+Vehicle, Aged+Vehicle, and Aged+GB groups) with 25453, 27,741, and 34,120 reads per nuclei, and 1018, 923, and 1061 genes per nuclei for Young+Vehicle, Aged+Vehicle, and Aged+GB groups respectively.
# The single-cell feature-barcode matrices from 10x Genomics cellranger count pipeline were imported into R version 4.1.3 and processed with Seurat 4.2.0. Next, ambient RNA was corrected by SoupX package43. […] Cell cycle genes were corrected for as described in Seurat's Cell-Cycle Scoring and Regression vignette. […] All remaining single-nuclei of each sample were then processed with dimension reduction and Louvain clustering as per Seurat's standard vignette. A combined Seurat object was also created following Seurat's integration protocol as described in Seurat's scRNA-seq integration using default parameters. Dimension reduction and clustering were also performed on the combined dataset as described above. Clusters were annotated using established cell type markers. […]
# [1] = test system: ovariectomized (OVX) female C57BL/6 mice; test: Postmenopausal (OVX, estrogen-deficient) mouse model: muscle wasting and physical activity; format: in vivo
# Protocol: Forelimb grip strength was measured by a grip strength meter (Muromachi Kikai Co., Tokyo, Japan). Each mouse performed five trials for force measurement, and the values were normalized to body and recorded. A rotarod test was carried out by using the rotarod treadmill (Singa Technology Corporation, Taoyuan City, Taiwan). The speed was adjusted to 4 rpm for 4 sec, 10 rpm for 10 sec, 20 rpm for 20 sec, and then 40 rpm until the mice fell. Mice were familiarized with the rotarod and balance beam by running 5 min for three consecutive days before the onset of experimentation. During the experiment, each mouse performed four trials, and the average time that each rodent was able to stay on top of the rotarod treadmill was recorded. The balance beam test was used to assess subtle motor coordination and balance. After initial training, mice were given four consecutive trials where they were required to cross 60 cm of a round beam (14 mm in diameter). The time for crossing the beam and the number of hind-feet slip were recorded. Hanging endurance was determined by Kondziella's inverted hanging screen test. Mice were putted at the center of grasped wire screen (bar thickness, 2 mm; mesh, 10 mm). After inverting the wire screen, the time of sustained limb tension on the screen were recorded. A fixed maximum hanging limit of 600 seconds was used. Each trial was repeated three times at 30-min interval, the mean values were recorded.
# [2] = GB 3 and 12 mg/kg daily for two months
compound,measurement,setting,value
"CC1C(=O)OC2C(O)C34C5CC(C(C)(C)C)C36C(OC(=O)C6O)OC4(C(=O)O5)C12O (centres unmarked) [GB, Ginkgolide B]",reversal of aging-related changes in nucleus proportion,"GA muscle nuclei; 8/14 nuclear types, GA muscle of aged mice",57%
same,expression levels of Runx1 in myonucleus and number of aging-elicited Runx1+ Type 2b myonuclei,GA muscle nuclei; GA muscle of aged mice,reduced
same,aging-related changes in the numbers and proportion of myonuclei,GA muscle nuclei; covering all 5 myonucleus subclusters altered by aging,reversed
same,number of Ptprc+ immune cells in skeletal muscle,GA muscle nuclei; particularly M2 and M2-like proliferating macrophages,increased
same,myofiber CSA,[1]; [2],dose-dependently restored
same,skeletal muscle mass,[1]; [2],dose-dependently restored
same,decline of motor performance,"[1]; high-dose GB, two months",fully reversed
same,forelimb grip strength,"[1]; high-dose GB, two months",improved
